Measured values taken from patent US7459451B2, “Pyrazolopyridine derivatives” (Astellas Pharma Inc., priority 2004, dated 2008).

In the case of `CCn1ncc2c(-c3cncc(C)c3)c(CCC(=O)O)c(COCC3CCCCC3)nc21` [Example 96, 3-[6-[(Cyclohexylmethoxy)methyl]-1-ethyl-4-(5-methyl-3-pyridyl)-1H-pyrazolo[3,4-b]pyridin-5-yl]propanoic acid], the melting point is reported as 183 to 184 °C.
In the case of `Cc1cncc(-c2c(CCC(=O)O)c(C)nc3c2cnn3C)c1` [Example 97, 3-[1,6-Dimethyl-4-(5-methyl-3-pyridyl)-1H-pyrazolo[3,4-b]pyridin-5-yl]propanoic acid], the melting point is reported as 205 to 207 °C.
Compound `CCn1ncc2c(-c3cncc(C)c3)c(CCC(=O)O)c(-c3ccccc3)nc21` [Example 98, 3-[1-Ethyl-4-(5-methyl-3-pyridyl)-6-phenyl-1H-pyrazolo[3,4-b]pyridin-5-yl]propanoic acid] has a melting point of 235 to 237 °C.
With `CCn1ncc2c(-c3cncc(C)c3)c(CCC(=O)O)c(C#N)nc21` [Example 100, 3-[6-Cyano-1-ethyl-4-(5-methyl-3-pyridyl)-1H-pyrazolo[3,4-b]pyridin-5-yl]propanoic acid] the melting point was 209 to 210 °C.
For `CCn1ncc2c(-c3cncc(C)c3)c(/C=C/C(=O)O)c(C3CCCCC3)nc21` [Example 190, (2E)-3-[6-Cyclohexyl-1-ethyl-4-(5-methyl-3-pyridyl)-1H-pyrazolo[3,4-b]pyridin-5-yl]acrylic acid], the melting point was 255 to 257 °C.
For `CCn1ncc2c(-c3cccc(Cl)c3)c(/C=C/C(=O)O)c(COC)nc21` [Example 191, (2E)-3-[4-(3-Chlorophenyl)-1-ethyl-6-(methoxymethyl)-1H-pyrazolo[3,4-b]pyridin-5-yl]acrylic acid], the melting point was 234 to 235 °C.
In the case of `CCn1ncc2c(-c3cncc(C)c3)c(CCC(=O)O)c(C(C)C)nc21` [Example 194, 3-[1-Ethyl-6-isopropyl-4-(5-methyl-3-pyridyl)-1H-pyrazolo[3,4-b]pyridin-5-yl]propanoic acid], the melting point is reported as 203 to 205 °C.
Work on `CCC(CC)c1nc2c(cnn2CC)c(-c2cncc(C)c2)c1/C=C/C(=O)O` [Example 201, (2E)-3-[1-Ethyl-6-(1-ethylpropyl)-4-(5-methyl-3-pyridyl)-1H-pyrazolo[3,4-b]pyridin-5-yl]acrylic acid] yielded a melting point of 197 to 199 °C.
`CCn1ncc2c(-c3ccnc(Cl)c3)c(/C=C/C(=O)O)c(-c3ccccc3)nc21` [Example 204, (2E)-3-[4-(2-Chloro-4-pyridyl)-1-ethyl-6-phenyl-1H-pyrazolo[3,4-b]pyridin-5-yl]acrylic acid] gave a melting point greater than 250 °C.
Work on `CCn1ncc2c(CC3CCCCC3)c(/C=C/C(=O)O)c(-c3ccccc3)nc21` [Example 206, (2E)-3-[4-(Cyclohexylmethyl)-1-ethyl-6-phenyl-1H-pyrazolo[3,4-b]pyridin-5-yl]acrylic acid] yielded a melting point of 201 to 202 °C.
Compound `CCn1ncc2c(-c3ccc(Cl)s3)c(/C=C/C(=O)O)c(-c3ccccc3)nc21` [Example 207, (2E)-3-[4-(5-Chloro-2-thienyl)-1-ethyl-6-phenyl-1H-pyrazolo[3,4-b]pyridin-5-yl]acrylic acid] has a melting point of 187 to 188 °C.
Compound `CCn1ncc2c(-c3ccc(Cl)nc3)c(/C=C/C(=O)O)c(-c3ccccc3)nc21` [Example 208, (2E)-3-[4-(6-Chloro-3-pyridyl)-1-ethyl-6-phenyl-1H-pyrazolo[3,4-b]pyridin-5-yl]acrylic acid] has a melting point of 255 to 258 °C.
`CCn1ncc2c(-c3ccccc3)c(/C=C/C(=O)O)c(-c3ccccc3)nc21` [Example 211, (2E)-3-(1-Ethyl-4,6-diphenyl-1H-pyrazolo[3,4-b]pyridin-5-yl)acrylic acid] showed a melting point greater than 250 °C.
`CCn1ncc2c(-c3cncc(C)c3)c(/C=C/C(=O)O)c(C(C)C)nc21` [Example 212, (2E)-3-[1-Ethyl-6-isopropyl-4-(5-methyl-3-pyridyl)-1H-pyrazolo[3,4-b]pyridin-5-yl]acrylic acid] showed a melting point of 247 to 248 °C.
For `CCn1ncc2c(-c3cncc(Cl)c3)c(/C=C/C(=O)O)c(-c3ccccc3)nc21` [Example 213, (2E)-3-[4-(5-Chloro-3-pyridyl)-1-ethyl-6-phenyl-1H-pyrazolo[3,4-b]pyridin-5-yl]acrylic acid], the melting point was 242 to 244 °C.
Compound `CCn1ncc2c(-c3cncc(C)c3)c(/C=C/C(=O)O)c(C3CC3)nc21` [Example 214, (2E)-3-[6-Cyclopropyl-1-ethyl-4-(5-methyl-3-pyridyl)-1H-pyrazolo[3,4-b]pyridin-5-yl]acrylic acid] has a melting point of 221 to 222 °C.
In the case of `CCn1ncc2c(-c3cncc(C)c3)c(/C=C/C(=O)O)c(CC(C)C)nc21` [Example 215, (2E)-3-[1-Ethyl-6-isobutyl-4-(5-methyl-3-pyridyl)-1H-pyrazolo[3,4-b]pyridin-5-yl]acrylic acid], the melting point is reported as 212 to 213 °C.
Compound `CCn1ncc2c(-c3cncc(OC)c3)c(/C=C/C(=O)O)c(-c3ccccc3)nc21` [Example 218, (2E)-3-[1-Ethyl-4-(5-methoxy-3-pyridyl)-6-phenyl-1H-pyrazolo[3,4-b]pyridin-5-yl]acrylic acid] has a melting point of 253 to 254 °C.
Work on `CCn1ncc2c(-c3ccc(Cl)s3)c(/C=C/C(=O)O)c(C(C)C)nc21` [Example 224, (2E)-3-[4-(5-Chloro-2-thienyl)-1-ethyl-6-isopropyl-1H-pyrazolo[3,4-b]pyridin-5-yl]acrylic acid] yielded a melting point of 163 to 165 °C.
Compound `CCn1ncc2c(-c3cncc(Br)c3)c(/C=C/C(=O)O)c(C(C)C)nc21` [Example 225, (2E)-3-[4-(5-Bromo-3-pyridyl)-1-ethyl-6-isopropyl-1H-pyrazolo[3,4-b]pyridin-5-yl]acrylic acid] has a melting point of 234 to 235 °C.
`CCn1ncc2c(-c3cncc(Br)c3)c(/C=C/C(=O)O)c(COC)nc21` [Example 226, (2E)-3-[4-(5-Bromo-3-pyridyl)-1-ethyl-6-(methoxymethyl)-1H-pyrazolo[3,4-b]pyridin-5-yl]acrylic acid] showed a melting point of 180 to 182 °C.
`CCn1ncc2c(-c3cncc(Cl)c3)c(/C=C/C(=O)O)c(C(C)C)nc21` [Example 228, (2E)-3-[4-(5-Chloro-3-pyridyl)-1-ethyl-6-isopropyl-1H-pyrazolo[3,4-b]pyridin-5-yl]acrylic acid] showed a melting point of 218 to 220.5 °C.
For `CCn1ncc2c(-c3cncc(C)c3)c(CCC(=O)O)c(C3CCC3)nc21` [Example 230, 3-[6-cyclobutyl-1-ethyl-4-(5-methyl-3-pyridyl)-1H-pyrazolo[3,4-b]pyridin-5-yl]propanoic acid], the melting point was 212 to 213 °C.
Work on `CCn1ncc2c(-c3cncc(Cl)c3)c(/C=C/C(=O)O)c(COC)nc21` [Example 231, (2E)-3-[4-(5-chloro-3-pyridyl)-1-ethyl-6-(methoxymethyl)-1H-pyrazolo[3,4-b]pyridin-5-yl]acrylic acid] yielded a melting point of 187 to 188 °C.
In the case of `CCOCc1nc2c(cnn2CC)c(-c2cncc(C)c2)c1/C=C/C(=O)O` [Example 234, (2E)-3-[6-(Ethoxymethyl)-1-ethyl-4-(5-methyl-3-pyridyl)-1H-pyrazolo[3,4-b]pyridin-5-yl]acrylic acid], the melting point is reported as 187 to 188 °C.
`CCn1ncc2c(-c3cncc(C)c3)c(/C=C/C(=O)O)c(CC(C)(C)C)nc21` [Example 236, (2E)-3-[6-(2,2-Dimethylpropyl)-1-ethyl-4-(5-methyl-3-pyridyl)-1H-pyrazolo[3,4-b]pyridin-5-yl]acrylic acid] showed a melting point of 216 to 217.5 °C.
Compound `CCn1ncc2c(-c3cncc(C)c3)c(/C=C/C(=O)O)c(COC(C)C)nc21` [Example 240, (2E)-3-[1-Ethyl-6-(isopropoxymethyl)-4-(5-methyl-3-pyridyl)-1H-pyrazolo[3,4-b]pyridin-5-yl]acrylic acid] has a melting point of 198 to 199 °C.
In the case of `CCn1ncc2c(-c3cncc(C)c3)c(CCC(=O)O)c(CC3CC3)nc21` [Example 241, 3-[6-(Cyclopropylmethyl)-1-ethyl-4-(5-methyl-3-pyridyl)-1H-pyrazolo[3,4-b]pyridin-5-yl]propanoic acid], the melting point is reported as 184 to 185 °C.
Compound `CCn1ncc2c(-c3ccnc(C)c3)c(/C=C/C(=O)O)c(C(C)C)nc21` [Example 242, (2E)-3-[1-Ethyl-6-isopropyl-4-(2-methyl-4-pyridyl)-1H-pyrazolo[3,4-b]pyridin-5-yl]acrylic acid] has a melting point of 260 to 262.5 °C.
In the case of `CCC(CC)NC(=O)c1c(-c2ccccc2)nc2c(cnn2CC)c1-c1cncc(C)c1` [Example 245, 1-Ethyl-N-(1-ethylpropyl)-4-(5-methyl-3-pyridyl)-6-phenyl-1H-pyrazolo[3,4-b]pyridine-5-carboxamide], the melting point is reported as 170 to 172 °C.
In the case of `CCn1ncc2c(-c3cncc(C)c3)c(C(=O)NCCOc3ccccc3)c(-c3ccccc3)nc21` [Example 246, 1-Ethyl-4-(5-methyl-3-pyridyl)-N-(2-phenoxyethyl)-6-phenyl-1H-pyrazolo[3,4-b]pyridine-5-carboxamide], the melting point is reported as 175 to 176 °C.
With `CCn1ncc2c(-c3cncc(C)c3)c(C(=O)NCC3CCCCC3)c(-c3ccccc3)nc21` [Example 247, N-(Cyclohexylmethyl)-1-ethyl-4-(5-methyl-3-pyridyl)-6-phenyl-1H-pyrazolo[3,4-b]pyridine-5-carboxamide] the melting point was 197 to 199 °C.
Work on `CCn1ncc2c(-c3cncc(C)c3)c(CCC(=O)O)c(C3CC3)nc21` [Example 343, 3-[6-Cyclopropyl-1-ethyl-4-(5-methyl-3-pyridyl)-1H-pyrazolo[3,4-b]pyridin-5-yl]propanoic acid] yielded a melting point of 205 to 207 °C.
`CCn1ncc2c(-c3cncc(C)c3)c(CCC(=O)O)c(CC(C)C)nc21` [Example 344, 3-[1-Ethyl-6-isobutyl-4-(5-methyl-3-pyridyl)-1H-pyrazolo[3,4-b]pyridin-5-yl]propanoic acid] showed a melting point of 190 to 191 °C.
`CCC(CC)c1nc2c(cnn2CC)c(-c2cncc(C)c2)c1CCC(=O)O` [Example 346, 3-[1-Ethyl-6-(1-ethylpropyl)-4-(5-methyl-3-pyridyl)-1H-pyrazolo[3,4-b]pyridin-5-yl]propanoic acid] gave a melting point of 144 to 145 °C.
`CCn1ncc2c(-c3cncc(C)c3)c(CCC(=O)O)c(CC(C)(C)C)nc21` [Example 349, 3-[6-(2,2-Dimethylpropyl)-1-ethyl-4-(5-methyl-3-pyridyl)-1H-pyrazolo[3,4-b]pyridin-5-yl]propanoic acid] gave a melting point of 221 to 223 °C.
`CCn1ncc2c(-c3ccnc(C)c3)c(CCC(=O)O)c(C(C)C)nc21` [Example 351, 3-[1-Ethyl-6-isopropyl-4-(2-methyl-4-pyridyl)-1H-pyrazolo[3,4-b]pyridin-5-yl]propanoic acid] gave a melting point of 187 to 189 °C.
